Measured values as given in paper PMC7235778, “Methylxanthines Inhibit Primary Amine Oxidase and Monoamine Oxidase Activities of Human Adipose Tissue” (Medicines, 2020).
Values belong to the compound of their own block, whether it stands above or below them.

Key:
[1] = molecular target: T1, primary amine oxidase (PrAO; SSAO/VAP-1) (Homo sapiens, UniProt Q16853); assay: Amplex Red H2O2 assay of methylamine and benzylamine oxidation in adipose tissue homogenate; assay type: cell-based; settings: read-out: % inhibition at 1 mM
T1 construct: gene AOC3; native enzyme in human subcutaneous adipose tissue homogenate
T1 sequence (Q16853 1-763): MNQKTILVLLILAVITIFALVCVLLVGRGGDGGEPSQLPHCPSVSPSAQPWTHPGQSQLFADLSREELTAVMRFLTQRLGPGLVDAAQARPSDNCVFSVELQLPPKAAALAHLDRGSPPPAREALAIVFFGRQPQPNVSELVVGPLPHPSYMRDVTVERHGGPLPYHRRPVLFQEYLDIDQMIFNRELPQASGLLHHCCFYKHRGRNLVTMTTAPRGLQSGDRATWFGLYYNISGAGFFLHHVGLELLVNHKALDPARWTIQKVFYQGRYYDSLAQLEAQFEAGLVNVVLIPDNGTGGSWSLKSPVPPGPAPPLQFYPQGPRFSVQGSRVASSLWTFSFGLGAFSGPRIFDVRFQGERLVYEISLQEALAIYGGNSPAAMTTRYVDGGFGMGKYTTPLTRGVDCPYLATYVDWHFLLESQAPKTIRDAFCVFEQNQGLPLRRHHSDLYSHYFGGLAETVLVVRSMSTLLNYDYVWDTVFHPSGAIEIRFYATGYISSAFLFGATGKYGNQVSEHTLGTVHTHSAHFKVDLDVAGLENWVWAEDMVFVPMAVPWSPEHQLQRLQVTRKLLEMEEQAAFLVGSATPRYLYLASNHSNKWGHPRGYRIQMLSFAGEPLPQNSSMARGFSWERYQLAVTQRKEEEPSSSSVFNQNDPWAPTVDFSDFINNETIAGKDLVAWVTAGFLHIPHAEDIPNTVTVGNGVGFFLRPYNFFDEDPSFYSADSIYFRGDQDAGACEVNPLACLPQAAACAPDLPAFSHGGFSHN

[2] = molecular target: T1, primary amine oxidase (PrAO; SSAO/VAP-1); assay: Amplex Red H2O2 assay of benzylamine and methylamine oxidation in adipose tissue homogenate; assay type: biochemical
[3] = molecular target: T1, primary amine oxidase (PrAO; SSAO/VAP-1); assay: as above; assay type: cell-based; settings: read-out: % inhibition at 2.5 mM
[4] = molecular target: T1, primary amine oxidase (PrAO; SSAO/VAP-1); assay: Amplex Red H2O2 assay of benzylamine oxidation in adipose tissue homogenate; Lineweaver-Burk analysis; assay type: cell-based; settings: read-out: % inhibition at 2.5 mM

inhibition at 1000 µM [1]: ~80%
Compound: CC(C)Cn1c(=O)n(C)c(=O)c2[nH]cnc21 [IBMX, 3-isobutyl-1-methylxanthine]

Compound: NNC(N)=O [Semi, semicarbazide]
Amplex Red H2O2 assay of benzylamine and methylamine oxidation in adipose tissue [2]: total inhibition at 1

Compound: Cn1c(=O)c2c(ncn2C)n(C)c1=O [caffeine]
inhibition at 2500 µM [3]: ~50%

inhibition at 2500 µM [4]: 54%
Compound: Cn1cnc2c1c(=O)[nH]c(=O)n2C [theobromine]
